Article PMC10303271, “Synthesis and Receptor Binding Studies of α5 GABAAR Selective Novel Imidazodiazepines Targeted for Psychiatric and Cognitive Disorders” (Molecules, 2023)

How the values were obtained:
[1] = system: Alpha7; assay: PDSP primary binding Alpha7; conditions: primary binding, 10,000 nM; last figure of the line = mean of the 4 before it
Procedure: (§1) To determine if any off-target receptor-binding effects are present, all the novel ligands were sent to the National Institute of Mental Health (NIMH), Psychoactive Drug Screening Program (PDSP). The ligands were screened over a panel of 47 receptors, ion channels, and transporters to determine any other possible interactions with […]. The hERG-binding was also determined. […] No binding of the test compounds to calcium channels was observed. […] It is necessary to screen the compounds for hERG-binding during the early process of drug discovery. The unintentional binding of many drugs to hERG can cause blockade of hERG K+ channels in the heart, which can cause many side effects including cardiac arrhythmias and sudden death. […] All of the α5 imidazodiazepines were tested for hERG-binding.
(§2) The NIMH PDSP assay protocol book [https://kidbdev.med.unc.edu/databases/PDSP%20Protocols%20II%202013-03-28.pdf accessed on 23 April 2023]. describes the protocols for primary and secondary radio-ligand binding assays. These assays were carried out in a final volume of 125 µL per well in the appropriate binding buffer.
(§3) The binding of a ligand to a receptor, ion channel, or transporter was determined in the […] of 10 µM of the appropriate reference compound. […] Plates were incubated in the dark for 90 min at rt, and the reactions were stopped by vacuum filtration onto 0.3% polyethyleneimine (PEI) soaked 96-well filter mats using a 96-well Filtermateharvester. This was followed by three washes with cold PBS buffer. Radioactivity was then counted on a Microbeta counter. Nonlinear regression was used to analyze the data with N = 6 replicates.

[2] = system: NMDA; assay: PDSP primary binding NMDA; conditions: primary binding, 10,000 nM; last figure of the line = mean of the 4 before it
Procedure: as §1, §2, §3

[3] = biological target: T1, 5-HT2B (Homo sapiens, UniProt P41595); assay: PDSP primary binding 5-HT2B; conditions: 1.5 h; primary binding, 10,000 nM; last figure of the line = mean of the 4 before it; read-out: 5-HT2B, PDSP raw data, mean
T1 construct: purchased NIMH Psychoactive Drug Screening Program (PDSP)
T1 sequence (P41595 whole entry): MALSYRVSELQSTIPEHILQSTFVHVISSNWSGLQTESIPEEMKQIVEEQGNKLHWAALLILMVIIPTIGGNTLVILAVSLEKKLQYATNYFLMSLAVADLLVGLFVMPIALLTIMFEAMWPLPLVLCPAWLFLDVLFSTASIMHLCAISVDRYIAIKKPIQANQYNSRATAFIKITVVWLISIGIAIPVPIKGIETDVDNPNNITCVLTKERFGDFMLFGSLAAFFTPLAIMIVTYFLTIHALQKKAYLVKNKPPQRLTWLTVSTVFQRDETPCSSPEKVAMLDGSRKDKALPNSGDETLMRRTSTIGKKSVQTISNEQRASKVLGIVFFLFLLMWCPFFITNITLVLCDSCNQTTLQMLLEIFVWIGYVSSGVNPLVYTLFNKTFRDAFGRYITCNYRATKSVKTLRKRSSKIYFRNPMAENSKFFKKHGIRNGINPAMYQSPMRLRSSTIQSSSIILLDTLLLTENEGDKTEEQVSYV
Procedure: as §1, §2, §3

[4] = biological target: T2, H2 (Homo sapiens, UniProt P25021); assay: PDSP primary binding H2; conditions: primary binding, 10,000 nM; last figure of the line = mean of the 4 before it; read-out: H2, PDSP raw data, mean
T2 construct: purchased NIMH Psychoactive Drug Screening Program (PDSP)
T2 sequence (P25021 whole entry): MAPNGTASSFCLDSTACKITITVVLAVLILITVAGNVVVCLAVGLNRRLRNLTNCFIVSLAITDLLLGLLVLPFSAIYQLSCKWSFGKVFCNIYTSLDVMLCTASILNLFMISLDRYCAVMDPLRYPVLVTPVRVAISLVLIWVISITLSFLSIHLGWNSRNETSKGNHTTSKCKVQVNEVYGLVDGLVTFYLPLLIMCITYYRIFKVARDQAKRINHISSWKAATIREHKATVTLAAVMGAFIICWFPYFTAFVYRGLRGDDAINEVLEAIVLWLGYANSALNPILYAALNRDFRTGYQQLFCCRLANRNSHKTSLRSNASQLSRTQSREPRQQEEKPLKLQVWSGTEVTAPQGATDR
Procedure: as §1, §2, §3

[5] = biological target: T3, hERG channels (Homo sapiens, UniProt Q12809); assay: PDSP radioligand binding at hERG; conditions: primary binding, 10,000 nM; last figure of the line = mean of the 4 before it
T3 construct: purchased NIMH Psychoactive Drug Screening Program (PDSP)
T3 sequence (Q12809 whole entry): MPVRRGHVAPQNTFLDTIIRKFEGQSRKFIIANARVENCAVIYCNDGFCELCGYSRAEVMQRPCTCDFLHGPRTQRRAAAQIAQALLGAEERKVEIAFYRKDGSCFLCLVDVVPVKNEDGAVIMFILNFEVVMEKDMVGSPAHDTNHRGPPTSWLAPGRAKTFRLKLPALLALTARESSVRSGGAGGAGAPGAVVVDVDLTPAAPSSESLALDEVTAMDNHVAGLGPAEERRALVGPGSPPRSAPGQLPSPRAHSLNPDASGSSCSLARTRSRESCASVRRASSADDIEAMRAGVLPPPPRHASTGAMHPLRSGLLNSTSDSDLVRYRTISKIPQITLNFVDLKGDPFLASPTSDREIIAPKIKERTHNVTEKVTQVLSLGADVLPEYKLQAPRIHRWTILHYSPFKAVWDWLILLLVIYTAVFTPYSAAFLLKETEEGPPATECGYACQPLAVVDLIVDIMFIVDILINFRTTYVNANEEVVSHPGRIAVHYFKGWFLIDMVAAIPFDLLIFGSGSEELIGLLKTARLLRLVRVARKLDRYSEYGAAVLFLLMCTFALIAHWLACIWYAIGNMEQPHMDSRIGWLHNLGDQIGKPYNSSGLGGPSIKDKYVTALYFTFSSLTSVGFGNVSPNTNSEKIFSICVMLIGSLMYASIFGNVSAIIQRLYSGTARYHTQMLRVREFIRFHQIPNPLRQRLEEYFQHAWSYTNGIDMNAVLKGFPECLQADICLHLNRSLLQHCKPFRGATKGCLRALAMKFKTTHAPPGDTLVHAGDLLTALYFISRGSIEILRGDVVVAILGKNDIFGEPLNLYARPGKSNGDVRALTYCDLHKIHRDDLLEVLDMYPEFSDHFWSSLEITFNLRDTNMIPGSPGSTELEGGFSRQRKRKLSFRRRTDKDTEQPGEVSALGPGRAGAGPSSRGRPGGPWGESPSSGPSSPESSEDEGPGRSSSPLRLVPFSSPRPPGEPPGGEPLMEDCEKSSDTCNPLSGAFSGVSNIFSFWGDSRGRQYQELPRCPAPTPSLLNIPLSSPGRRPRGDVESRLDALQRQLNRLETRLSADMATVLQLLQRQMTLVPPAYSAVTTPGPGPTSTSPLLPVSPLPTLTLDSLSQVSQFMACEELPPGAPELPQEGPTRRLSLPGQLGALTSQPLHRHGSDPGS
Procedure: as §1, §2, §3

[6] = biological target: T4, D2 (Homo sapiens, UniProt P14416); assay: PDSP primary binding D2; conditions: 1.5 h; primary binding, 10,000 nM; last figure of the line = mean of the 4 before it; read-out: D2, PDSP raw data, mean
T4 construct: purchased NIMH Psychoactive Drug Screening Program (PDSP)
T4 sequence (P14416 whole entry): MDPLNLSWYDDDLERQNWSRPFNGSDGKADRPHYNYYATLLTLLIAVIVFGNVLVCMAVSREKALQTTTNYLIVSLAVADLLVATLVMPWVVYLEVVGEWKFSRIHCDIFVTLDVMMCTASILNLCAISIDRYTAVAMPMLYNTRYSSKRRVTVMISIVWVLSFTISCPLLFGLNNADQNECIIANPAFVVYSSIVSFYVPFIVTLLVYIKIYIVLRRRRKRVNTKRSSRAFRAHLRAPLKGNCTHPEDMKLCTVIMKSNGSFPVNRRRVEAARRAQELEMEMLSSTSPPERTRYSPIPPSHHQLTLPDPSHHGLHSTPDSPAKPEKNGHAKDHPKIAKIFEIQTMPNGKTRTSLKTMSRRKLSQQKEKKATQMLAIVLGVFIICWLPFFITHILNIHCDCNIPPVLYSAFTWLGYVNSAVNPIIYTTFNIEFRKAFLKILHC
Procedure: as §1, §2, §3

[7] = biological target: T5, M3D (Homo sapiens, UniProt P20309, A239G/Y149C); assay: PDSP primary binding M3D; conditions: primary binding, 10,000 nM; last figure of the line = mean of the 4 before it; read-out: M3D, PDSP raw data, mean
T5 construct: purchased NIMH Psychoactive Drug Screening Program (PDSP)
T5 sequence (P20309 whole entry Y149C/A239G): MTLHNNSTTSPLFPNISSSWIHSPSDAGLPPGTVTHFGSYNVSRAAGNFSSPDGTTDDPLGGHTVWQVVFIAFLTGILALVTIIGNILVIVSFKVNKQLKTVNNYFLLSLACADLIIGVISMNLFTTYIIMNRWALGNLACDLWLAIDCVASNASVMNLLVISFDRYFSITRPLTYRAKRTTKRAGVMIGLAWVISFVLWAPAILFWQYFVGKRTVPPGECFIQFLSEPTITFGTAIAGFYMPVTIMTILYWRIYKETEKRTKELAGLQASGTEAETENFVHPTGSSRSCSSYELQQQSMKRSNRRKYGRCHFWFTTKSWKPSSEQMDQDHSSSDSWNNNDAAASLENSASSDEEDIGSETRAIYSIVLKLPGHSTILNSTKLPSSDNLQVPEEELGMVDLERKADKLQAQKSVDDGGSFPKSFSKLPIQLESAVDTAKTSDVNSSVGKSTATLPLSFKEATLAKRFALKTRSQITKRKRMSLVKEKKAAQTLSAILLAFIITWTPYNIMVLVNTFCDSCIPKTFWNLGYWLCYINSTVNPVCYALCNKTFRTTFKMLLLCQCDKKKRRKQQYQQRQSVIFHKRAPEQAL
Procedure: as §1, §2, §3

[8] = system: Kainate (Rat Brain); assay: PDSP primary binding Kainate (Rat Brain); conditions: primary binding, 10,000 nM; last figure of the line = mean of the 4 before it
Procedure: as §1, §2, §3

[9] = biological target: T6, Alpha2Beta4 (Rattus norvegicus, UniProt P12389+P12392); assay: PDSP primary binding Alpha2Beta4; conditions: primary binding, 10,000 nM; last figure of the line = mean of the 4 before it; read-out: Alpha2Beta4, PDSP raw data, mean
T6 construct: purchased NIMH Psychoactive Drug Screening Program (PDSP)
T6 sequence (P12389 28-511): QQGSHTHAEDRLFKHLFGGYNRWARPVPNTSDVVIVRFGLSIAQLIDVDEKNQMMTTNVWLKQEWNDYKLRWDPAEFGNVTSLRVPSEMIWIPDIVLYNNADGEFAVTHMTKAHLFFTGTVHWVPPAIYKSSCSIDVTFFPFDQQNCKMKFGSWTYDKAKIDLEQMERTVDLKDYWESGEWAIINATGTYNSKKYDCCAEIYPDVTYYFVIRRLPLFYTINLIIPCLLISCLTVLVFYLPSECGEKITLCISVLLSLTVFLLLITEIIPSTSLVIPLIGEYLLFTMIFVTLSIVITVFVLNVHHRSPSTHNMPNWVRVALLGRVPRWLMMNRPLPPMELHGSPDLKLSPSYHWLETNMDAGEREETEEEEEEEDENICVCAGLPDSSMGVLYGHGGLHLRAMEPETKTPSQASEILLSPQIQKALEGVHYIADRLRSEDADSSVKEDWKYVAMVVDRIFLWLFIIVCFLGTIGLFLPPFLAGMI
T6 sequence (P12392 21-495): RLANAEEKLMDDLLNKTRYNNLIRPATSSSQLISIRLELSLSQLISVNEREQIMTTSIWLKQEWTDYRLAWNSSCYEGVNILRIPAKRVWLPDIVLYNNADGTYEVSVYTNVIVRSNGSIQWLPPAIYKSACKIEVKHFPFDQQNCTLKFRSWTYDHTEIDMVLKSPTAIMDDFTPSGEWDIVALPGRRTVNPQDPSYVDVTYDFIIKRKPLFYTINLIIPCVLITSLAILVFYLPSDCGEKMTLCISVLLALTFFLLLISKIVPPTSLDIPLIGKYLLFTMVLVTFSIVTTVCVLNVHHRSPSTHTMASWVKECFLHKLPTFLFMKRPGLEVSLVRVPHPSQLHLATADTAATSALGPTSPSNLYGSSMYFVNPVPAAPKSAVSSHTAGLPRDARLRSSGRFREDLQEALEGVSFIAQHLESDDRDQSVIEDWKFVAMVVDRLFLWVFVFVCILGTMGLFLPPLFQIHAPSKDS
Procedure: as §1, §2, §3

[10] = biological target: T7, M4 D (Homo sapiens, UniProt P08173, A203G/Y113C); assay: PDSP primary binding M4 D; conditions: primary binding, 10,000 nM; last figure of the line = mean of the 4 before it; read-out: M4 D, PDSP raw data, mean
T7 construct: purchased NIMH Psychoactive Drug Screening Program (PDSP)
T7 sequence (P08173 1-479 Y113C/A203G): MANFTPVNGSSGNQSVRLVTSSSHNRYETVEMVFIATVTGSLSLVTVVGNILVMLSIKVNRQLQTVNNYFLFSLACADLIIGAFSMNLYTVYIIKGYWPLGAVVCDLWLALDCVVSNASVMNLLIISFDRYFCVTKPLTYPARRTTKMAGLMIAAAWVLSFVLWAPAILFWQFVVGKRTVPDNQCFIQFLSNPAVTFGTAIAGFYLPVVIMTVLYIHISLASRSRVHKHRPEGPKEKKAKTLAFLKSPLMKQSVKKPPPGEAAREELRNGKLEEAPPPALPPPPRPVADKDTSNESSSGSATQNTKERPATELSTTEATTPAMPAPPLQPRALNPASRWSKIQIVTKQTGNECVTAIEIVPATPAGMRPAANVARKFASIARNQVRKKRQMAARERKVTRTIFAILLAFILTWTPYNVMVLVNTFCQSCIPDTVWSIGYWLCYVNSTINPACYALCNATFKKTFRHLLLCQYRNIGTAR
Procedure: as §1, §2, §3

[11] = biological target: T8, Alpha3Beta2 (Rattus norvegicus, UniProt P04757+P12390); assay: PDSP primary binding Alpha3Beta2; conditions: primary binding, 10,000 nM; last figure of the line = mean of the 4 before it; read-out: Alpha3Beta2, PDSP raw data, mean
T8 construct: purchased NIMH Psychoactive Drug Screening Program (PDSP)
T8 sequence (P04757 26-499): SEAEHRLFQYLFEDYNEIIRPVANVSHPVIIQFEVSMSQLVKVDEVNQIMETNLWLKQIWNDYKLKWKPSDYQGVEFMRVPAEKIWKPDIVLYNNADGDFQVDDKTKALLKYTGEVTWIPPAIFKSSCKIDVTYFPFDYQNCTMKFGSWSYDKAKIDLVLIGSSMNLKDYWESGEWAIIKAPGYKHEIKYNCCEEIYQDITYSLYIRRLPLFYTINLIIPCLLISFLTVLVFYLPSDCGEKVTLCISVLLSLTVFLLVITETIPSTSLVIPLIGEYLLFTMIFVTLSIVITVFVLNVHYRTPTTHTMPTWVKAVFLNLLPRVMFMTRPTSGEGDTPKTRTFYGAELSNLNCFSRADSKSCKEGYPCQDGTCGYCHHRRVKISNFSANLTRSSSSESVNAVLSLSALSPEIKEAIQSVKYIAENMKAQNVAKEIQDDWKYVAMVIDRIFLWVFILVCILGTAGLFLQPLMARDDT
T8 sequence (P12390 25-500): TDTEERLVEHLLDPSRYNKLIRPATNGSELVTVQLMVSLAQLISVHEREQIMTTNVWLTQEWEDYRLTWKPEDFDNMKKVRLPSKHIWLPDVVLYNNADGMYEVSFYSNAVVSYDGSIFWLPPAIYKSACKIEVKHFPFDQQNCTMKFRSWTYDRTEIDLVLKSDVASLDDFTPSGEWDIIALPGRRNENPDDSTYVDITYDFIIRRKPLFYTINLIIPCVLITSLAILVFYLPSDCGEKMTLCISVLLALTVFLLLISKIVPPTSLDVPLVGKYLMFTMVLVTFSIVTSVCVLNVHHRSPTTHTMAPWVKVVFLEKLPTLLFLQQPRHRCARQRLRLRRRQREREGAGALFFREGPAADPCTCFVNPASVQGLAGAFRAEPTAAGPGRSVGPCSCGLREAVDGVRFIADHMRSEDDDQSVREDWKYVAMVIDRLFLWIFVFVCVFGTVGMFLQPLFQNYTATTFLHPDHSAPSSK
Procedure: as §1, §2, §3

[12] = biological target: T9, Alpha1A (Homo sapiens, UniProt P35348); assay: PDSP primary binding Alpha1A; conditions: 1.5 h; primary binding, 10,000 nM; last figure of the line = mean of the 4 before it; read-out: Alpha1A, PDSP raw data, mean
T9 construct: purchased NIMH Psychoactive Drug Screening Program (PDSP)
T9 sequence (P35348 1-466): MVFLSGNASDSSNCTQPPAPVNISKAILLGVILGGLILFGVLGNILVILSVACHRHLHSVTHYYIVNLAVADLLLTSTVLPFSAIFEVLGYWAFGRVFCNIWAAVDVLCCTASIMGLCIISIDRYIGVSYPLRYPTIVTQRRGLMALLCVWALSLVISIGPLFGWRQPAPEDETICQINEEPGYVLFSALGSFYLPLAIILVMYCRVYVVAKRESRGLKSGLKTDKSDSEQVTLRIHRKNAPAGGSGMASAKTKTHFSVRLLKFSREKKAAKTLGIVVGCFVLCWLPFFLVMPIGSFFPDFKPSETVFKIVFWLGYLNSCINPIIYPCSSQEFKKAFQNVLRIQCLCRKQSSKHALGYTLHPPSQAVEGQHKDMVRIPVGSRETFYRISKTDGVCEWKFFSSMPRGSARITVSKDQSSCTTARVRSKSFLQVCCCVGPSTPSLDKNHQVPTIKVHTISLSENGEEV
Procedure: as §1, §2, §3

SMILES	Alpha7, PDSP raw data, mean [1]	NMDA, PDSP raw data, mean [2]	inhibition at 10 µM [3]	inhibition at 10 µM [4]	HERG, PDSP raw data, mean [5]	inhibition at 10 µM [6]	inhibition at 10 µM [7]	Kainate (Rat Brain), PDSP raw data, mean [8]	inhibition at 10 µM [9]	inhibition at 10 µM [10]	inhibition at 10 µM [11]	inhibition at 10 µM [12]
C[C@H]1N=C(c2ccccc2F)c2cc(Cl)ccc2-n2cnc(-c3nc(C4CC4)no3)c21 [Compound 38, (R)-5-(8-Chloro-6-(2′-fluorophenyl)-4-methyl-4H-benzo[f]imidazo[1,5-a][1,4]diazepin-3-yl)-3-cyclopropyl-1,2,4-oxadiazole]	11.55%	65.22%	10%	6.81%	9.37%	21.8%	6.92%	36.46%	0.54%	-18.7%	6.96%	1.65%
CCc1noc(-c2ncn3c2CN=C(c2ccccc2F)c2cc(C4CC4)ccc2-3)n1 [Compound 44, 5-(8-Cyclopropyl-6-(2′-fluorophenyl)-4H-benzo[f]imidazo[1,5-a][1,4]diazepin-3-yl)-3-ethyl-1,2,4-oxadiazole]	-24.22%	20.03%	18.5%	1.55%	33.24%	0.67%	11.8%	42.42%	8.23%	35.9%	-0.02%	21.4%
CCc1noc(-c2ncn3c2[C@@H](C)N=C(c2ccccc2F)c2cc(C4CC4)ccc2-3)n1 [Compound 46, (R)-5-(8-Cyclopropyl-6-(2′-fluorophenyl)-4-methyl-4H-benzo[f]imidazo[1,5-a][1,4]diazepin-3-yl)-3-ethyl-1,2,4-oxadiazole]	4.57%	66.04%	25.1%	6.98%	4.34%	4.73%	9.97%	38.21%	6.41%	33.1%	5.55%	31.8%
